In ChEMBL document CHEMBL3991946, “Linked Myc-max small molecule inhibitors” (2014):
pIC50, pKd: −log10 of the molar value. The source made the active and inactive calls. The calls are words filed in the database; no cut-off is given here.

Assays:
[1] = molecular target: T1, Myc proto-oncogene protein (Homo sapiens, UniProt P01106); experiment: Binding affinity to recombinant full-length N-terminal hexahistidine-tagged c-Myc (353 to 437 residues) bHLH-ZIP domain (unknown origin) expressed in Escherichia coli BL21 DE3 (pLysS) by fluorescence polarization assay
[2] = molecular target: T2, c-Myc/c-Max (Homo sapiens) (UniProt P01106+P61244); experiment: Inhibition of recombinant c-Myc/Max (unknown origin) expressed in human HL60 cells assessed as disruption of c-Myc/Max association after 16 hrs by co-immunoprecipitation assay; type: cell-based
[3] = molecular target: T2, c-Myc/c-Max (Homo sapiens); experiment: Inhibition of recombinant c-Myc/Max (unknown origin) expressed in human HL60 cells assessed as disruption of c-Myc/Max association after 6 hrs by co-immunoprecipitation assay; type: cell-based
HL-60 = experiment: Cytotoxicity against human HL60 cells expressing c-Myc assessed as growth inhibition after 4 to 5 days by MTT assay; type: functional, cell-based
Daudi = experiment: Cytotoxicity against human Daudi Burkitt lymphoma cells expressing c-Myc assessed as growth inhibition after 4 to 5 days by MTT assay; type: functional, cell-based
[4] = Metabolic stability of the compound
[5] = Cytotoxicity against non-transformed rat TGR1 assessed as growth inhibition after 4 to 5 days by MTT assay; type: cell-based
[6] = Cytotoxicity against c-Myc null rat TGR1 reconstituted with HMGA1b or MT-MC1 assessed as growth inhibition after 4 to 5 days by MTT assay; type: cell-based
[7] = molecular target: T1, Myc proto-oncogene protein; experiment: Binding affinity to recombinant full-length N-terminal hexahistidine-tagged c-Myc (353 to 437 residues) bHLH-ZIP domain (unknown origin) expressed in Escherichia coli BL21 DE3 (pLysS) assessed as changes in shape or intensity of CD spectrum at 5 uM by circular dichroism assay
c-Myc/Max (Homo sapiens) [8] = molecular target: T3, c-Myc/Max (Homo sapiens) (UniProt P01106+P61244); experiment: (§1) Inhibition of recombinant full-length N-terminal hexahistidine-tagged c-Myc (353 to 437 residues) bHLH-ZIP domain (unknown origin) expressed in Escherichia coli BL21 DE3 (pLysS)/human hexahistidine-tagged Max p21 expressed in Escherichia coli M15 (pRep4) assessed as disruption of E-Box DNA binding preincubated for 30 mins with c-Myc followed by Max p21 and E-box element addition measured after 15 mins by electrophoretic mobility shift assay
[9] = molecular target: Protein max (Homo sapiens) (UniProt P61244); experiment: Binding affinity to human hexahistidine-tagged Max p21 bHLH-ZIP domain expressed in Escherichia coli M15 (pRep4) at 10 uM by fluorescence polarization assay
[10] = molecular target: T1, Myc proto-oncogene protein; experiment: Binding affinity to recombinant full-length N-terminal hexahistidine-tagged c-Myc (353 to 437 residues) bHLH-ZIP domain (unknown origin) expressed in Escherichia coli BL21 DE3 (pLysS) assessed as changes in COSY spectra in alpha1H region at 500 uM by NMR spectroscopy
[11] = molecular target: T1, Myc proto-oncogene protein; experiment: Binding affinity to recombinant full-length N-terminal hexahistidine-tagged c-Myc (353 to 437 residues) bHLH-ZIP domain (unknown origin) expressed in Escherichia coli BL21 DE3 (pLysS) assessed as changes in NOESY spectra at 500 uM by NMR spectroscopy
[12] = molecular target: T1, Myc proto-oncogene protein; experiment: Binding affinity to recombinant full-length N-terminal hexahistidine-tagged c-Myc (353 to 437 residues) bHLH-ZIP domain (unknown origin) expressed in Escherichia coli BL21 DE3 (pLysS) assessed as changes in alpha1H signals of Phe 374 to 375 and Tyr 402 residues at 500 uM by NMR spectroscopy
[13] = molecular target: T1, Myc proto-oncogene protein; experiment: Displacement of 10058-F4 from recombinant full-length N-terminal hexahistidine-tagged c-Myc (353 to 437 residues) bHLH-ZIP domain (unknown origin) expressed in Escherichia coli BL21 DE3 (pLysS) by fluorescence polarization assay
[14] = molecular target: T1, Myc proto-oncogene protein; experiment: Binding affinity to recombinant full-length N-terminal hexahistidine-tagged c-Myc (353 to 437 residues) bHLH-ZIP domain (unknown origin) expressed in Escherichia coli BL21 DE3 (pLysS) assessed as changes in alpha1H signals of Tyr 402 residues at 500 uM by NMR spectroscopy
c-Myc/Max (Homo sapiens) [15] = molecular target: T3, c-Myc/Max (Homo sapiens); experiment: as §1, with “binding at 25 to 50 nM” for “binding”, “element” for “element addition”
[16] = molecular target: T1, Myc proto-oncogene protein; experiment: Binding affinity to recombinant truncated N-terminal hexahistidine-tagged c-Myc (363 to 381 residues) bHLH-ZIP domain (unknown origin) expressed in Escherichia coli BL21 DE3 (pLysS) by fluorescence polarization assay
[17] = molecular target: T1, Myc proto-oncogene protein; experiment: Binding affinity to recombinant truncated N-terminal hexahistidine-tagged c-Myc (400 to 439 residues) bHLH-ZIP domain (unknown origin) expressed in Escherichia coli BL21 DE3 (pLysS) by fluorescence polarization assay

T2 sequence (P01106 whole entry): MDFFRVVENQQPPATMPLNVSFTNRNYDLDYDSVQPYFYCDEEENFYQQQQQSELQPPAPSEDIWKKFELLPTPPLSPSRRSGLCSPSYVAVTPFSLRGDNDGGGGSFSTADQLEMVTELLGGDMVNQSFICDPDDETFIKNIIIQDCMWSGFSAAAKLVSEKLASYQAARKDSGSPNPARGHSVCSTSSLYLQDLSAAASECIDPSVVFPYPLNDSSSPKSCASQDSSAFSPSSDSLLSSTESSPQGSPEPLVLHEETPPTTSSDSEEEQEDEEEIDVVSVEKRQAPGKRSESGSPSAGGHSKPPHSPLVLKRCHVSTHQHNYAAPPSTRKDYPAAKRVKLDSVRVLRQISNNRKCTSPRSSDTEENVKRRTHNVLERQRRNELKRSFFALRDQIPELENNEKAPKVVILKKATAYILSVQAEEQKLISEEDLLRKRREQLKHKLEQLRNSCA
T2 sequence (P61244 2-160 partner limits assumed): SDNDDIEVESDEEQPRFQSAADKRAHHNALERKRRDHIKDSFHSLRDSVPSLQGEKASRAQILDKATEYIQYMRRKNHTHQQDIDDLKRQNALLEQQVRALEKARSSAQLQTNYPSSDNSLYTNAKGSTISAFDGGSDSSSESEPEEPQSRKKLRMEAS
T1 sequence (P01106 whole entry, the tested form may be a part): as the sequence (P01106 whole entry) above
Chain of Protein max (Homo sapiens) (P61244 whole entry, the tested form may be a part): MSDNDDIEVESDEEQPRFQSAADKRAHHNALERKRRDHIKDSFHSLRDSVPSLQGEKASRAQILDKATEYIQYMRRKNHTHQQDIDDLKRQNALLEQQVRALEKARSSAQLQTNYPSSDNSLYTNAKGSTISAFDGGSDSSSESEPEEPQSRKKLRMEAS

Row | SMILES | pKd [1] | pIC50 (HL-60) | pIC50 (Daudi) | growth inhibition (GI) [5] | growth inhibition (GI) [6] | further results
1 | O=C1NC(=S)S/C1=C\c1ccc(C(=O)O)cc1 | 4.59 |  |  |  |  | 
2 | CC(=O)NCCCCCOC(=O)c1ccc(Nc2ccc([N+](=O)[O-])c3nonc23)cc1 | 5.77 |  |  |  |  | 
3 | CCc1ccc(/C=C2\SC(=O)N(CCCCCCNC(C)=O)C2=O)cc1 | 5.15 |  |  |  |  | Activity [13]: Active
4 | O=C1NC(=S)S/C1=C/c1ccc(C(=O)NCCCCCNC(=O)c2ccc(Nc3ccc([N+](=O)[O-])c4nonc34)cc2)cc1 |  |  |  | Non-Toxic | Non-Toxic | Activity [7]: inactive; inhibition (c-Myc/Max (Homo sapiens) [8]): Active; Activity [9]: inactive
5 | CCc1ccc(/C=C2\SC(=S)NC2=O)cc1 |  |  |  | Non-Toxic | Non-Toxic | inhibition [14]: Active; inhibition (c-Myc/Max (Homo sapiens) [15]): Active; inhibition [10]: Active
6 | O=C1NC(=S)S/C1=C\c1ccc(C(=O)NCCCCCNC(=O)c2cccc(Nc3ccc([N+](=O)[O-])c4nonc34)c2)cc1 |  |  |  | Non-Toxic | Non-Toxic | Activity [7]: inactive; inhibition (c-Myc/Max (Homo sapiens) [8]): Active; Activity [9]: inactive
7 | CCc1ccc(/C=C2\SC(=O)N(CCCCNC(=O)c3ccc(Nc4ccc([N+](=O)[O-])c5nonc45)cc3)C2=O)cc1 |  |  |  | Non-Toxic | Non-Toxic | Stability [4]: Unstable
8 | O=[N+]([O-])c1ccc(Nc2ccccc2-c2ccccc2)c2nonc12 |  |  |  | Non-Toxic | Non-Toxic | inhibition (c-Myc/Max (Homo sapiens) [15]): Active; inhibition [10]: Active
9 | CCc1ccc(/C=C2\SC(=O)N(CCCCCNC(=O)c3cccc(Nc4ccc([N+](=O)[O-])c5nonc45)c3)C2=O)cc1 | 6.96 | < 4.52 | < 5.00 | Non-Toxic | Non-Toxic | Activity [7]: inactive; inhibition (c-Myc/Max (Homo sapiens) [8]): Active; Activity [9]: inactive
10 | O=C(CNC(=O)c1ccc(Nc2ccc([N+](=O)[O-])c3nonc23)cc1)NCCCCCNC(=O)c1ccc(/C=C2\SC(=S)NC2=O)cc1 | 6.49 | 4.89 to 5.15 | 4.96 to 5.15 | Non-Toxic | Non-Toxic | 

More lines, in order of rising pKd [1], values ahead:

Row | pKd [1] | SMILES | pIC50 (HL-60) | pIC50 (Daudi) | growth inhibition (GI) [5] | growth inhibition (GI) [6] | further results
11 | 7.26 | O=C(CCCCCNC(=O)c1ccc(Nc2ccc([N+](=O)[O-])c3nonc23)cc1)NCCCCCNC(=O)c1ccc(/C=C2\SC(=S)NC2=O)cc1 |  |  |  |  | 
12 | 7.62 | O=C1NC(=S)S/C1=C\c1ccc(C(=O)NCCCCCNC(=O)c2ccccc2Nc2ccc([N+](=O)[O-])c3nonc23)cc1 | < 5.00 |  | Non-Toxic | Non-Toxic | Activity [7]: inactive; inhibition (c-Myc/Max (Homo sapiens) [8]): Active; Activity [9]: inactive; pKd [16]: 8.00; pKd [17]: 6.91
13 | 7.96 | O=C(NCCCCCN1C(=O)S/C(=C\c2ccc(F)cc2)C1=O)c1ccccc1Nc1ccc([N+](=O)[O-])c2nonc12 | 5.77 to 5.82 | 5.92 to 6.00 |  |  | inhibition [2]: inactive; inhibition [3]: Dose-dependent effect; Stability [4]: Unstable
14 | 8.30 | CCc1ccc(/C=C2\SC(=O)N(CCCCCNC(=O)CCCCCNC(=O)c3ccc(Nc4ccc([N+](=O)[O-])c5nonc45)cc3)C2=O)cc1 |  |  |  |  | 
15 | 8.34 | O=C(NCCCCCCN1C(=O)S/C(=C\c2ccc(F)cc2)C1=O)c1ccccc1Nc1ccc([N+](=O)[O-])c2nonc12 | 5.46 to 5.52 | 5.10 to 5.22 |  |  | 
16 | 8.44 | CCc1ccc(/C=C2\SC(=O)N(CCCCCNC(=O)CNC(=O)c3ccc(Nc4ccc([N+](=O)[O-])c5nonc45)cc3)C2=O)cc1 | 5.40 to 5.70 | 5.22 to 5.40 | Non-Toxic | Non-Toxic | 
17 | 8.44 | O=C(NCCCCCN1C(=O)S/C(=C\c2ccc(F)cc2)C1=O)c1ccc(Nc2ccc([N+](=O)[O-])c3nonc23)cc1 | 5.00 to 5.22 | 5.15 to 5.22 |  |  | 
18 | 8.52 | CCc1ccc(/C=C2\SC(=O)N(CCCCNC(=O)c3ccccc3Nc3ccc([N+](=O)[O-])c4nonc34)C2=O)cc1 | 5.22 to 5.70 | 5.60 to 5.70 |  |  | inhibition [2]: inactive; inhibition [3]: Dose-dependent effect; Stability [4]: Unstable
19 | 8.77 | O=C(NCCCCCCN1C(=O)S/C(=C\c2ccc(F)cc2)C1=O)c1ccc(Nc2ccc([N+](=O)[O-])c3nonc23)cc1 | 5.40 to 5.52 | 5.92 |  |  | inhibition [2]: inactive; inhibition [3]: Dose-dependent effect; Stability [4]: Unstable
20 | 9.22 | CCc1ccc(/C=C2\SC(=O)N(CCCCCNC(=O)c3ccc(Nc4ccc([N+](=O)[O-])c5nonc45)cc3)C2=O)cc1 | 5.05 to 5.15 | 5.40 to 5.70 | Non-Toxic | Non-Toxic | Activity [7]: inactive; inhibition (c-Myc/Max (Homo sapiens) [8]): Active; Activity [9]: inactive; inhibition [10]: Active; Activity [11]: Active; inhibition [12]: Active
